Assay results reported in publication PMC7070682, “Alpha-Glucosidase- and Lipase-Inhibitory Phenalenones from a New Species of Pseudolophiostoma Originating from Thailand” (Molecules, 2020).
In brackets after ≈: the same amount, converted by molar mass.

Experiments:
[1] = test system: mouse fibroblast (L929) cells; test: Cytotoxicity assessment vs. L929; assay type: cell-based
Method: (§1) To verify the predicted toxicity of compounds 1–3, a cytotoxicity assessment (Table 4) was performed against mouse fibroblast (L929) and HeLa (KB3.1) cells, as previously reported.
(§2) The cytotoxic effects of the compounds were evaluated using a standard procedure.

[2] = molecular target: α-glucosidase; test: α-Glucosidase assay (p-NPG substrate); assay type: biochemical
Method: α-Glucosidase assay. The substrates p-nitrophenyl α-glucopyranoside (p-NPG) and α-glucosidase were purchased from Sigma (St. Louis, USA). […] The standard assay protocol established by the Enzyme Inhibition Laboratory was adopted with minor modifications. First, 0.85 units/mL enzyme and 0.7mM of substrate were used for the initial screening of the fungal extracts, and 100mM sodium phosphate buffer containing 50 mM NaCl was prepared in deionized water (pH 6.8). The change in the absorbance was monitored initially before incubation and 30 min after the addition of p-NPG substrate. Percentage inhibition of enzyme by various test compounds was calculated using the formula: % inhibition= (ABS of Blank −ABS of Sample)/ABS of Blank× 100

[3] = test system: HeLa (KB3.1) cells; test: Cytotoxicity assessment vs. KB3.1; assay type: cell-based; conditions: Homo sapiens, KB 3-1
Method: as §1, §2

[4] = parameters: method as in PMID 21923104; conditions: previously shown; cited from earlier work
[5] = molecular target: T1, porcine lipase (Sus scrofa, UniProt P00591); test: Pancreatic lipase assay (p-nitrophenyl butyrate hydrolysis); assay type: biochemical; conditions: for IC50: p-nitrophenyl butyrate substrate
T1 sequence (P00591 1-450): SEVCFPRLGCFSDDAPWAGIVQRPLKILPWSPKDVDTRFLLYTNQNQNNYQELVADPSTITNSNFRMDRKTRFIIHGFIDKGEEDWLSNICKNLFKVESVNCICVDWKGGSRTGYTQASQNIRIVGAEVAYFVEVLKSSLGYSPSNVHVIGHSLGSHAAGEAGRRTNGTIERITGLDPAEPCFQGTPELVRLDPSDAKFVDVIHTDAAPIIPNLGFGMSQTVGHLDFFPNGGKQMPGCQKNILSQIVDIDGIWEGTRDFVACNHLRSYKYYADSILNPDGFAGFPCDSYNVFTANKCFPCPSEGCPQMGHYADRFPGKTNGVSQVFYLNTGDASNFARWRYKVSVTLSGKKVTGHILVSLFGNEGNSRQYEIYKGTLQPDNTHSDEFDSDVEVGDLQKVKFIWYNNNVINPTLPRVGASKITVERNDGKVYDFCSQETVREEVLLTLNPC
Method: Pancreatic Lipase Assay. […] Thirty five microliters of each test compound in DMSO, 15 µL of pancreatic lipase enzyme (1 mg/mL buffer), and 45 µL Tris-HCl buffer (2.5 mmol Tris, pH = 7.4 and 2.5 mmol NaCl) were mixed in a 96 well microtiter plate and incubated at 25 °C for 15 min. The enzymatic hydrolysis was started upon the addition of 15 µL p-nitrophenyl butyrate (p-NPB). The number of p-nitrophenolate ions generated by the reaction was monitored using microplate reader, measured before incubation and 30 min after the addition of the substrate with corresponding change in absorbance at 405 nm.

| IC50 [2] [µM] | IC50 [5] [µM] | Structure (SMILES) | IC50 [1] [µg/mL] | IC50 [3] [µg/mL] | antimicrobial activities [4] | times more potent than orlistat (lipase inhibition) ([5]; relative to positive control orlistat) [times] |
| --- | --- | --- | --- | --- | --- | --- |
| > 100 | > 100 | Cc1cc(O)cc2c1C1=C(C(=O)C2=O)C(C)(C)[C@H](C)O1 [Compound 3, trypethelone] | 2.7 (≈ 9.92 µM) | 4.2 (≈ 15.4 µM) | – | – |
| 48.7 | 3.4 | Cc1cc(O)c2c3c(c(O)c4c(c13)O[C@@H](C)C4(C)C)C(=O)C(=O)O2 [Compound 1, scleroderolide] | 15 (≈ 45.7 µM) | 21 (≈ 64 µM) | – | – |
| – | – | C/C(=C\c1csc(C)n1)[C@@H]1C[C@@H]2O[C@]2(C)CCC[C@H](C)[C@H](O)[C@@H](C)C(=O)C(C)(C)[C@@H](O)CC(=O)O1 [Epothilone B, reference compound] | 0.0009 (≈ 0.00177 µM) | 4e-05 (≈ 7.88e-05 µM) | – | – |

| Structure (SMILES) | IC50 [2] [µM] | IC50 [5] [µM] | IC50 [1] [µg/mL] | IC50 [3] [µg/mL] | antimicrobial activities [4] | times more potent than orlistat (lipase inhibition) ([5]; relative to positive control orlistat) [times] |
| --- | --- | --- | --- | --- | --- | --- |
| Cc1cc(O)c2c3c(c(O)c4c(c13)O[C@@H](C)C4(C)C)C(=O)C2=O [Compound 2, sclerodione] | 120 | 1 | 27 (≈ 86.4 µM) | 18 (≈ 57.6 µM) | moderate | 9 |
